Reference: patent US10342837B2, “Extracts and compositions of helichrysum odoratissimum for preventing and treating skin cancers” (University of Pretoria, priority 2013, dated 2019)
In brackets after ≈: the same amount, converted by molar mass. Numbered stars: 1 amine (or outer) side, 2 acyl side, 3 side chain; on linkers, the order of the positions; unused ones are H or OH. Bridge positions count the residues as written; N and C are the ends. Square brackets hold non-standard residues; d marks the D form. Peptide text beside a SMILES is read from it. I, II: the chains in the order shown. Actinocin(9to1) = Cc1c2oc3c(C)ccc(C(=O)[*:1])c3nc-2c(C(=O)[*:2])c(N)c1=O; NMeV = CN[C@H](C(=O)O)C(C)C; Sar = CNCC(=O)O

Experiments:
Type in all cases: cell-based
U937 cells [1] = test: Cytotoxicity on U937 cells; conditions: U937 cells
From the text: (§1) The cytotoxicity of the H. odoratissimum extract was first analyzed on the U937 cells to determine IC50 values at which the extract could be tested when evaluating the cytokine profile and to ensure that the concentrations of phytohemagglutinin (PHA) and pentoxifylline, used to determine the cytokine profile, was not toxic to the U937 cells.

IL-12 = IL-12 production in U937 cells (ELISA); conditions: for production of IL-12 of the controls compared to the medium control (in words): PHA at 5 μg/ml, pentoxifylline at 20 μg/ml
Description: (§2) The levels of cytokine production (IL-8 and IL-12) from cell supernatants were measured by enzyme-linked immunosorbent assay (ELISA) according to the manufacturer's protocol (BD Biosciences, San Diego, Calif., USA). The levels of IL-12 were determined as it was reported to act as a potential anti-tumour agent (Brunda et al. 1993). IL-8 was measured as it plays a major role in the progression of various cancer cells by invasion, migration, adhesion, proliferation (Kuai et al. 2012). Briefly U937 cells were plated at a concentration of 2.5×10^5 cell per well in a 24-well plate. The cells were incubated for 24 h with 0.1 μg/ml PMA at 37° C. and 5% CO2 to allow the monocytes to differentiate into macrophages. The cells were treated with various concentrations of H. odoratissimum extracts. Controls included 20 μg/ml pentoxifylline, 5 μg/ml phytohemagglutinin (PHA), as well as vehicle-treated control cells (1% DMSO) and a medium only control. The cells were incubated for a further 20 hrs and thereafter centrifuged at 980 rpm for 5 min to collect the cell free supernatant and analyse the concentration of IL-8 and IL-12.
(§3) H. odoratissimum was analyzed at 20 μg/ml, 15 μg/ml, 10 μg/ml and 5 μg/ml to determine whether the extract was able to induce the production of IL-12 and inhibit the production of IL-8 in phytohemagglutinin (PHA) stimulated U937 cells, the results of which are depicted in Table 2.

IL-8 = IL-8 production in U937 cells (ELISA)
Description: as §2, with “The cells were incubated for a further 20 hrs and thereafter centrifuged at 980 rpm for 5 min to collect the cell free supernatant and analyse the concentration of IL-8 and IL-12.” left out
as §3

U937 cells [2] = test: Cell viability of U937 cells in cytokine production test; conditions: sample at 5 μg/ml; U937 cells
Description: as §2, with “The cells were incubated for a further 20 hrs and thereafter centrifuged at 980 rpm for 5 min to collect the cell free supernatant and analyse the concentration of IL-8 and IL-12.” left out
as §3

[3] = Cytotoxicity on U937 cells; conditions: human
From the text: as §1

[4] = Cell viability of U937 cells in cytokine production test; conditions: human
Description: as §2, with “The cells were incubated for a further 20 hrs and thereafter centrifuged at 980 rpm for 5 min to collect the cell free supernatant and analyse the concentration of IL-8 and IL-12.” left out
as §3

A431 cells = test: Light microscopy, haematoxylin and eosin staining of A431 cells (apoptosis); conditions: 0.025 μg/ml, 72 h exposure
Description: The specific concentrations of extract were chosen due to the anti-proliferative activity that was observed. Exponentially growing cells were seeded at 100,000 cell per well in 6-well plates on heat-sterilized coverslips. After 24 h incubation at 37° C. and 5% […] for cell adherence, cells were exposed to 15 μg/ml, 30 μg/ml and 7.5 μg/ml of H. odoratissimum extract including vehicle-treated control cells (2% DMSO); cells propagate in growth medium, as well as 0.025 μg/ml Actinomycin D and incubated for 72 h at 37° C. Cells were then fixed in Bouin's fixative for 30 min and stained by standard haematoxylin and eosin staining procedures (Stander et al. 2009).
The influence of H. odoratissimum was compared to a medium control, vehicle-treated control and Actinomycin D (FIG. 3).

Molecule | IC50 (in μg/ml), cytotoxicity on U937 cells (U937 cells [1]) [µg/mL] | production of IL-12 of the controls compared to the medium control (in words) (IL-12) | IL-12 (IL-12; sample at 5 μg/ml) [pg/mL] | IL-8 (IL-8; sample at 5 μg/ml) [pg/mL] | Cell viability in % (U937 cells [2]) | IC50 [3] [µg/mL] | IL-12 (IL-12; sample at 20 μg/ml) [pg/mL] | IL-8 (IL-8; sample at 20 μg/ml) [pg/mL] | viability at 20 h, 20 μg/ml [4] [%] | A431 cell morphology (in words) (A431 cells)
phytohemagglutinin [PHA] | 318 ± 7.8 | increase in IL-12 | 9.49 ± 3.8 | 107 ± 5.6 | 101% ± 0.3 |  |  |  |  | 
CC(=O)CCCCn1c(=O)c2c(ncn2C)n(C)c1=O [Pentoxifylline, pentoxifylline] |  | inhibition |  |  |  | 170 ± 6.4 (≈ 611 µM) | 1.37 ± 0.9 | 51.2 ± 7.2 | 106 | 
Cc1c2oc3c(C)ccc(C(=O)N[C@@H]4C(=O)N[C@H](C(C)C)C(=O)N5CCC[C@H]5C(=O)N(C)CC(=O)N(C)[C@@H](C(C)C)C(=O)O[C@@H]4C)c3nc-2c(C(=O)N[C@@H]2C(=O)N[C@H](C(C)C)C(=O)N3CCC[C@H]3C(=O)N(C)CC(=O)N(C)[C@@H](C(C)C)C(=O)O[C@@H]2C)c(N)c1=O [Actinomycin D] (I: T[dV]P[Sar][NMeV] / II: T[dV]P[Sar][NMeV]; ester I:1-I:C, II:1-II:C; linker I:N-II:N via Actinocin(9to1)) |  |  |  |  |  |  |  |  |  | a great amount of cell death and total loss of cell viability
